Measured values taken from patent US6080791A, “Method of treating a viral condition by inhibiting membrane fusion” (priority 1992, dated 2000).
Read-outs that look alike come from different tables or passages of the source.

Assays:
in vitro = conditions: dog, mdck
[1] = target: hemagglutinin (BHA), fusion peptide exposure (Influenza A virus (A/X-31(H3N2)), UniProt P03438); assay type: biochemical, C22 / X31 influenza virus (H3N2)
[2] = target: C22 BHA (Influenza A virus (A/X-31(H3N2)), UniProt P03438); assay type: biochemical
[3] = test system: hemagglutinin-mediated hemolysis of human red blood cells; experiment: Hemolysis (HEM) assay; assay type: cell-based, C22 influenza virus; human red blood cells; conditions: for IC50 / inhibition at 1000 µM / inhibition at 100 µM / inhibition at 10 µM: unidentified influenza virus, Erythrocyte; for inhibition at 1000 µM / inhibition at 100 µM / inhibition at 10 µM: read-out: hemolysis % ↓ OD
C22 virus in MDCK2 cells [4] = test system: C22 virus in MDCK2 cells
low pH BHA = experiment: SPA POST control (nonspecific quenching); design: species or system C22 / X31 influenza virus (H3N2)
Procedure: The compounds being screened by SPA are present during scintillation counting. Some of the chemicals, particularly those that are highly colored, quench the detection of radioactivity. A control ("POST") distinguishes whether apparent inhibition arises from inhibition of the conformational change or from nonspecific effects. The test compound is added to a sample of BHA that had previously been acidified and reneutralized. The mixture is then precipitated as usual. Since the BHA treated in this manner is known to be in the low pH conformation, a reduction in measurable cpm compared to controls with ligand omitted proves the compound interferes with the detection system.
^3 H-Leu BHA was diluted to 10,000 cpm (counts per minute) per 200 μl in MSSH buffer (10 mM HEPES, 10 mM MES, 10 mM succinate, 0.10 M NaCl, pH 7.0) containing 0.1% NP40. Protein was incubated with the specified concentration of trial compound for 25 minutes at RT. The same volume of solvent used to dissolve the compound was added to control samples and the final concentration of DMSO in all solutions was 0.67% v/v. A predetermined amount of 1N HAc was added to bring the reactions to the appropriate pH (usually pH 5.0). Following a 5 minute (unless specified otherwise) incubation at RT, reactions were reneutralized with 1N NaOH. For POST controls, compounds were added to the appropriate concentration after reneutralization. 200 μL aliquots of the protein solution were added to scintillation vials containing 100 μl protein A-SPA beads (Amersham), 5% fetal bovine serum (FBS), and antibody. Vials were incubated overnight at RT with constant shaking. Each reaction used 10 μl of fusion peptide antiserum diluted 1:10 with 50% glycerol. Cpm were detected in a Beckman LS3801 scintillation counter without addition of liquid scintillant.
Apparent inhibition due to nonspecific effects was quantitated from the POST controls with the equation:
observed cpm=true cpm*quench factor

[5] = target: BHA (Influenza A virus (A/X-31(H3N2)), UniProt P03438); assay type: biochemical, C22 / X31 influenza virus (H3N2); conditions: 1 mM
[6] = test system: influenza-mediated syncytia formation, CV-1 cells
hemoglobin = experiment: Hb control (quenching of OD570 of hemoglobin); design: species or system human
C22 virus in MDCK2 cells [7] = experiment: microbe, parasite or virus in culture; conditions: unidentified influenza virus; for inhibition at 1 µM / inhibition at 10 µM / inhibition at 100 µM: MDCK2, 15 h, read-out: infectivity % inhibition
[8] = 1 mM
Procedure: Synthesis, purification, and characterization of selected compounds are summarized below. Stock solutions were prepared fresh daily. All solutions of the test compounds were prepared in dimethyl-sulfoxide (DMSO).

HIV-1 fusion protein = HIV-1 fusion protein (Human immunodeficiency virus type 1 group M subtype B, UniProt P04578); experiment: Inhibition of fusion mediated by the HIV-1 fusion protein; assay type: cell-based
[9] = Table 7, read-out: HEM, negative log of IC50 (converted)
[10] = 0.25 h, Table 6, 10^-3 = 1 mM, low pH 15 minutes, read-out: IC50 hemolysis
[11] = MDCK2, read-out: INF, negative log of IC50 (converted)

hemagglutinin (BHA), fusion peptide exposure (Influenza A virus (A/X-31(H3N2)), UniProt P03438), sequence (P03438 whole entry, looked up, the tested form may be a part): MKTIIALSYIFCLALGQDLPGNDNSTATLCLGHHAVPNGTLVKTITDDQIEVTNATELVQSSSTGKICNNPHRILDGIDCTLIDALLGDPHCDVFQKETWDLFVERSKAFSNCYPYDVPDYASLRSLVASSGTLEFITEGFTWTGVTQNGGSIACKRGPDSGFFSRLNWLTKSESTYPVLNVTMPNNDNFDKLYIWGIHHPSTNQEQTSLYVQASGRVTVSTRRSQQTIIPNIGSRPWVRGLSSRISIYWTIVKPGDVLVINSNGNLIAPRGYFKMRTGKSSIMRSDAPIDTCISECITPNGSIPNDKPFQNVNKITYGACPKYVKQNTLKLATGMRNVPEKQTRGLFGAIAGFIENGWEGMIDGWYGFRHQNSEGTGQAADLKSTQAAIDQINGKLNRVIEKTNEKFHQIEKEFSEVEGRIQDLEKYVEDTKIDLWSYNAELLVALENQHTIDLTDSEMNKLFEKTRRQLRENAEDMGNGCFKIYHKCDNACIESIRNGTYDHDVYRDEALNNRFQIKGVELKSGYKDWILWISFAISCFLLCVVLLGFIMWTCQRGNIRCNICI
C22 BHA (Influenza A virus (A/X-31(H3N2)), UniProt P03438), sequence (P03438 whole entry, looked up): as the sequence (P03438 whole entry, looked up, the tested form may be a part) above
BHA (Influenza A virus (A/X-31(H3N2)), UniProt P03438), sequence (P03438 whole entry, looked up): as the sequence (P03438 whole entry, looked up, the tested form may be a part) above

In the case of `O=C1C=CC(=O)C2C3C=CC(C3)C12` (stereo not drawn) [Compound 83K, 4A,5,8,8A-tetrahydro-5,8-methano-1,4-naphthoguinone], the cytotoxicity at 15 h, 1 µM (in vitro) is reported as 3.4 ± 10.5%, the cytotoxicity at 15 h, 10 µM (in vitro) is reported as 7.3 ± 8.9% and the cytotoxicity at 15 h, 100 µM (in vitro) is reported as 46.4 ± 15.1%. The cytotoxicity at 15 h, 1000 µM (in vitro) was 92.9 ± 7.4%, the “% inhibition, sample (Table 1)” value [1] was 49.1 ± 15.0% and the “inhibition at 10^-5 M” value ([1]; 10^-5 M) was “negligible inhibition”. For the same molecule, the “inhibition at low pH” value ([2]; 10 seconds at pH 5.0) was 73%, the “inhibition at low pH” value ([2]; 10 minutes at pH 5.0) was 43% and the “fraction of its maximal inhibition of fusion peptide exposure maintained” value ([2]; after 10 minutes at pH 5.0, C22 BHA) was 60%. For the same molecule, the “inhibition of hemolytic activity” value [3] was “apparently inhibited hemolytic activity”, the IC50 [3, 9] was 100 to 1000 µM and the “infectivity in Table 6” value (C22 virus in MDCK2 cells [4]; Table 6) was “toxic”. For the same molecule, the “INF, words (Table 7)” value (C22 virus in MDCK2 cells [4]; Table 7) was “toxic”, the “Inhibition of the POST controls” value (low pH BHA; 10 mM) was 26.4% and the “Inhibition of the POST controls” value (low pH BHA; all other concentrations (below 10 mM)) was at most 4%. For the same molecule, the “% inhibition, POST control” value (low pH BHA; log conc -3 (M)) was -5.3 ± 2.1%, the “% inhibition, POST control” value (low pH BHA; log conc -4 (M)) was 3.0% and the “% inhibition, POST control” value (low pH BHA; log conc -5 (M)) was 0.8 ± 12.7%. The “% inhibition, POST control” value (low pH BHA; log conc -6 (M)) was -6.2% and the “reversibility of inhibition by dilution” value [5] was “reversible by dilution”.

With `CC(C)(C)c1cc(O)ccc1O` [Compound 117, tert-butylhydroquinone] the cytotoxicity at 15 h, 1 µM (in vitro) was -8.4 ± 7.6%, the cytotoxicity at 15 h, 10 µM (in vitro) was -13.7 ± 2.8% and the cytotoxicity at 15 h, 100 µM (in vitro) was -26.1 ± 3.3%. The “inhibition of syncytia formation” value ([6]; 1 μM) was “Significant inhibition was not observed”, the “inhibition of syncytia formation” value ([6]; 10 μM) was “completely abolished the ability of the virus to induce syncytia” and the “Hb control % ↓ OD” value (hemoglobin; log conc -3 (M)) was 17.8%. The “Hb control % ↓ OD” value (hemoglobin; log conc -4 (M)) was 9.9 ± 2.8%, the “Hb control % ↓ OD” value (hemoglobin; log conc -5 (M)) was 7.9% and the “activity rank among compounds tested” value [1] was “most active”. For the same molecule, the “inhibition of hemolytic activity” value [3] was “apparently inhibited hemolytic activity”, the IC50 [3, 10] was 100 µM and the IC50 [3, 9] was 100 µM. For the same molecule, the inhibition at 1000 µM ([3]; log conc -3 (M)) was 116%, the inhibition at 100 µM ([3]; log conc -4 (M)) was 31.6 ± 6.9% and the inhibition at 10 µM ([3]; log conc -5 (M)) was 13.9%. For the same molecule, the “% inhibition, POST control” value (low pH BHA; log conc -3 (M)) was -3.4%, the “% inhibition, POST control” value (low pH BHA; log conc -4 (M)) was 2.9% and the “% inhibition, POST control” value (low pH BHA; log conc -5 (M)) was 9.1%. The “% inhibition, POST control” value (low pH BHA; log conc -6 (M)) was 4.7%, the inhibition at 1 µM (C22 virus in MDCK2 cells [7]) was 7.5 ± 0.1% and the inhibition at 10 µM (C22 virus in MDCK2 cells [7]) was 22.2 ± 13.2%. For the same molecule, the inhibition at 100 µM (C22 virus in MDCK2 cells [7]) was 53.7 ± 26.4% and the IC50 (C22 virus in MDCK2 cells [7]; [11]) was 10 to 100 µM.

For `O=C1C=CC(=O)c2cc3ccccc3cc21` [Compound 114, 1,4-anthraquinone], the cytotoxicity at 15 h, 1 µM (in vitro) was -4.3 ± 3.3%, the cytotoxicity at 15 h, 10 µM (in vitro) was 53.7 ± 2.1% and the cytotoxicity at 15 h, 100 µM (in vitro) was 102%. For the same molecule, the “syncytia, Table 6” value [6] was “toxic”, the “infectivity in Table 6” value (C22 virus in MDCK2 cells [4]; Table 6) was “toxic” and the “INF, words (Table 7)” value (C22 virus in MDCK2 cells [4]; Table 7) was “toxic”. The inhibition at 1 µM (C22 virus in MDCK2 cells [7]) was 0.2 ± 0.2% and the inhibition at 10 µM (C22 virus in MDCK2 cells [7]) was 92.3 ± 12.7%.

For `Cl.Nc1ccc(O)c2ccccc12` [Compound 121, 4-amino-1-naphthol hydrochloride], the cytotoxicity at 15 h, 100 µM (in vitro) was 100%, the “Hb control % ↓ OD” value (hemoglobin) was 68.0% and the IC50 ([3]; 0.25 h, read-out: IC50 hemolysis) was at least 1000 µM. It also gave an IC50 ([3]; read-out: HEM, negative log of IC50 (converted)) of at least 1000 µM, an inhibition at 10 µM [3] of -4.6 ± 0.1% and an inhibition at 100 µM [3] of 31.5 ± 7.8%. For the same molecule, the inhibition at 1000 µM [3] was 116%, the “INF, words (Table 7)” value (C22 virus in MDCK2 cells [4]) was “toxic” and the “infectivity in Table 6” value (C22 virus in MDCK2 cells [4]) was “toxic”.

For `COc1ccc(O)c2ccccc12` [Compound 107, 4-methoxy-1-naphthol], the cytotoxicity at 15 h, 100 µM (in vitro) was 96.9%, the “solubility at 1 mM” value [8] was “only partially soluble at 1 mM” and the “Hb control % ↓ OD” value (hemoglobin; log conc -3 (M)) was 92.5%. The “hemolysis column of Table 6, words” value ([3]; Table 6) was “quench”, the “HEM, words (Table 7)” value ([3]; Table 7) was “quench” and the inhibition at 1000 µM ([3]; log conc -3 (M)) was 104%. The “infectivity in Table 6” value (C22 virus in MDCK2 cells [4]; Table 6) was “toxic”, the “INF, words (Table 7)” value (C22 virus in MDCK2 cells [4]; Table 7) was “toxic” and the IC50 (HIV-1 fusion protein) was 50 µM.

In the case of `Oc1ccc(O)c(-c2ccccc2)c1` [Compound 105, phenylhydroquinone], the cytotoxicity at 15 h, 100 µM (in vitro) is reported as 100%, the “solubility at 1 mM” value [8] is reported as “only partially soluble at 1 mM” and the “infectivity in Table 6” value (C22 virus in MDCK2 cells [4]; Table 6) is reported as “toxic”. For the same molecule, the “INF, words (Table 7)” value (C22 virus in MDCK2 cells [4]; Table 7) was “toxic”.

Work on `Cc1c(O)ccc(O)c1C` [Compound 99, 2,3-dimethylhydroquinone] yielded a cytotoxicity at 15 h, 1 µM (in vitro) of -4.2 ± 9%, a cytotoxicity at 15 h, 10 µM (in vitro) of -10.1 ± 10% and a cytotoxicity at 15 h, 100 µM (in vitro) of 99.4 ± 0.4%. For the same molecule, the “syncytia, Table 6” value [6] was “toxic”, the “Hb control % ↓ OD” value (hemoglobin; log conc -3 (M)) was 27.8% and the “inhibition of hemolytic activity” value [3] was “did not”. It also gave an IC50 [3, 10] of over 1000 µM, an IC50 [3, 9] of over 1000 µM and an inhibition at 1000 µM ([3]; log conc -3 (M)) of 28.7%. For the same molecule, the inhibition at 1 µM (C22 virus in MDCK2 cells [7]) was 26.2 ± 8.6%, the inhibition at 10 µM (C22 virus in MDCK2 cells [7]) was 35.9 ± 5.2% and the inhibition at 100 µM (C22 virus in MDCK2 cells [7]) was 114 ± 12%. It also gave an IC50 (C22 virus in MDCK2 cells [7]; MDCK2, read-out: IC50 infectivity) of over 10 µM and an IC50 (C22 virus in MDCK2 cells [7]; [11]) of over 10 µM.
